According to patent US6395766B1, “Tetrahydroindolone derivatives as gabaaalpha5 ligands for enhancing cognition” (Merck Sharp & Dohme Limited, priority 1998, dated 2002):

CCc1cn(-c2ccccn2)c2c1C(=O)CC(C)(C)C2 [Example 1, 6,6-Dimethyl 3-Ethyl-1-(pyridin-2-yl)-4,5,6,7-tetrahydroindol-4-one]
melting point: 125 to 127 °C

CC1(C)CC(=O)c2c(C(C)(C)C)cn(-c3ccccn3)c2C1 [Example 2, 6,6-Dimethyl-3-(1,1-dimethylethyl)-1-(pyridin-2-yl)-4,5,6,7-tetrahydroindol-4-one]
melting point: 143 to 145 °C

CCc1cn(-c2ncccn2)c2c1C(=O)CC(C)(C)C2 [Example 4, 3-Ethyl-6,6-dimethyl-1-(pyrimidin-2-yl)-4,5,6,7-tetrahydroindol-4-one]
melting point: 111 to 114 °C

CC1(C)CC(=O)c2c(-c3ccccn3)cn(-c3ccccn3)c2C1 [Example 17, 6,6-Dimethyl-1-(pyridin-2-yl)-3-(pyridin-2-yl)-4,5,6,7-tetrahydroindol-4-one]
melting point: 171 to 174 °C

CC1(C)CC(=O)c2c(Cc3ccccc3)cn(-c3ccccn3)c2C1 [Example 19, 6,6-Dimethyl-3-phenylmethyl-1-(pyridin-2-yl)-4,5,6,7-tetrahydroindol-4-one]
melting point: 111 to 113 °C

CC1(C)CC(=O)c2c(-c3ccccc3)cn(-c3ccccn3)c2C1 [Example 16, 6,6-Dimethyl-3-phenyl-1-(pyridin-2-yl)-4,5,6,7-tetrahydroindol-4-one]
melting point: 160 to 162 °C

CC1(C)CC(=O)c2c(Nc3ccccc3)cn(-c3ccccn3)c2C1 [Example 22, 6,6-Dimethyl-3-phenylamino-1-(pyridin-2-yl)-4,5,6,7-tetrahydroindol-4-one]
melting point: 135 to 138 °C

CCc1cn(-c2nccs2)c2c1C(=O)CC(C)(C)C2 [Example 5, 6,6-Dimethyl-3-ethyl-1-(thiazol-2-yl)-4,5,6,7-tetrahydroindol-4-one]
melting point: 58 to 60 °C

CC1(C)CC(=O)c2c(-c3nccs3)cn(-c3ccccn3)c2C1 [Example 15, 6,6-Dimethyl-1-(pyridin-2-yl)-3-(thiazol-2-yl)-4,5,6,7-tetrahydroindol-4-one]
melting point: 166 to 168 °C

CC1(C)CC(=O)c2c(-c3cncs3)cn(-c3ccccn3)c2C1 [Example 21, 6,6-Dimethyl-1-(pyridin-2-yl)-3-(thiazol-5-yl)-4,5,6,7-tetrahydroindol-4-one]
melting point: 167 to 169 °C

C=Cc1cn(-c2ccccn2)c2c1C(=O)CC(C)(C)C2 [Example 18, 6,6-Dimethyl-1-(pyridin-2-yl)-3-vinyl-4,5,6,7-tetrahydroindol-4-one]
melting point: 150 to 154 °C

CC1(C)CC(=O)c2c(Nc3ccccn3)cn(-c3ccccn3)c2C1 [Example 23, 6,6-Dimethyl-1-(pyridin-2-yl)-3-(pyridin-2-ylamino)-4,5,6,7-tetrahydroindol-4-one]
melting point: 180 to 183 °C

CC1(C)CC(=O)c2c(SCc3ccccc3)cn(-c3ccccn3)c2C1 [Example 14, 6,6-Dimethyl-3(phenylmethyl)thio-1-(pyridin-2-yl)-4,5,6,7-tetrahydroindol-4-one]
melting point: 190 to 192 °C
